Data: article PMC3016232 (Cancer Chemotherapy and Pharmacology, 2010)

Assays:
clinical = type: in vivo, human
[1] = type: in vivo, human
UGT1A = test: Formation of SN-38G from SN-38 in pooled human liver microsomes; type: in vitro ADME; settings: SN-38 5 μM, 30 min, microsomal protein 0.8 mg/mL
UGT1A1 mRNA = UGT1A1 mRNA levels in HCT116 cells by quantitative RT-PCR; type: cell-based, human; settings: HCT 116 cells; methimazole 25–100 μM; up to ~48 h
[2] = mean of the courses with or without methimazole, plasma
[3] = courses with methimazole, plasma
[4] = courses without methimazole, plasma

CCc1c2c(nc3ccc(OC(=O)N4CCC(NCCCCC(=O)O)CC4)cc13)-c1cc3c(c(=O)n1C2)COC(=O)C3(O)CC (centres unmarked) [APC, 7-Ethyl-10-[4-N-(5-aminopentanoic acid)-1-piperidino]-carbonyloxy-camptothecin]
mean exposure (AUC) to APC (clinical; [2]): 3,018 ng × h/mL

CCc1c2c(nc3ccc(OC(=O)N4CCC(N)CC4)cc13)-c1cc3c(c(=O)n1C2)COC(=O)[C@]3(O)CC [NPC, 7-Ethyl-10-[4-amino-1-piperidino]-carbonyloxycamptothecin]
mean exposure (AUC) to NPC (clinical; [2]): 32.3 ng·h/mL

CCc1c2c(nc3ccc(O)cc13)-c1cc3c(c(=O)n1C2)COC(=O)[C@]3(O)CC [SN-38, 7-Ethyl-10-hydroxy camptothecin]
mean relative extent of glucuronidation (ratio of SN-38G over SN-38) (clinical; courses with methimazole): 10.1
mean SN-38 AUC (clinical; [3]): 125 ng·h/mL
mean relative extent of glucuronidation (ratio of SN-38G over SN-38) (clinical; courses without methimazole): 6.85
mean SN-38 AUC (clinical; [4]): 110 ng·h/mL

CCc1c2c(nc3ccc(O[C@@H]4O[C@H](C(=O)O)[C@@H](O)[C@H](O)[C@H]4O)cc13)-c1cc3c(c(=O)n1C2)COC(=O)[C@]3(O)CC [SN-38G]
mean SN-38G AUC (clinical; [3]): 1,255 ng × h/mL
mean SN-38G AUC (clinical; [4]): 753 ng·h/mL

CCc1c2c(nc3ccc(OC(=O)N4CCC(N5CCCCC5)CC4)cc13)-c1cc3c(c(=O)n1C2)COC(=O)[C@]3(O)CC [irinotecan]
Irinotecan-related toxicity ([1]; all courses): mild
mean absolute neutrophil count nadir ([1]; mean of all courses): 4.2e+09 L⁻¹
AUC (clinical; male, human, in vivo): 16100 ng·h/mL

CC(=O)N1CCN(c2ccc(OCC3COC(Cn4ccnc4)(c4ccc(Cl)cc4Cl)O3)cc2)CC1 (centres unmarked) [ketoconazole]
reduction of SN-38G formation (UGT1A; ketoconazole 25 μM): 43%

Cn1cc[nH]c1=S [methimazole]
effect on SN-38G formation (UGT1A; methimazole 37.5 μM): did not decrease
induction of UGT1A1 mRNA levels compared to untreated control cells (UGT1A1 mRNA): 15–18 fold
